The values below come from ChEMBL document CHEMBL3596188, “Synthesis and structure-activity relationship of aminoarylthiazole derivatives as correctors of the chloride transport defect in cystic fibrosis” (Eur J Med Chem, 2015).

The structures appear in SMILES notation. Active and inactive are the calls of the source. How the calls were made is not given here.

Chain of Cystic fibrosis transmembrane conductance regulator (Homo sapiens), P13569 [F508del] (P13569 as listed by the source): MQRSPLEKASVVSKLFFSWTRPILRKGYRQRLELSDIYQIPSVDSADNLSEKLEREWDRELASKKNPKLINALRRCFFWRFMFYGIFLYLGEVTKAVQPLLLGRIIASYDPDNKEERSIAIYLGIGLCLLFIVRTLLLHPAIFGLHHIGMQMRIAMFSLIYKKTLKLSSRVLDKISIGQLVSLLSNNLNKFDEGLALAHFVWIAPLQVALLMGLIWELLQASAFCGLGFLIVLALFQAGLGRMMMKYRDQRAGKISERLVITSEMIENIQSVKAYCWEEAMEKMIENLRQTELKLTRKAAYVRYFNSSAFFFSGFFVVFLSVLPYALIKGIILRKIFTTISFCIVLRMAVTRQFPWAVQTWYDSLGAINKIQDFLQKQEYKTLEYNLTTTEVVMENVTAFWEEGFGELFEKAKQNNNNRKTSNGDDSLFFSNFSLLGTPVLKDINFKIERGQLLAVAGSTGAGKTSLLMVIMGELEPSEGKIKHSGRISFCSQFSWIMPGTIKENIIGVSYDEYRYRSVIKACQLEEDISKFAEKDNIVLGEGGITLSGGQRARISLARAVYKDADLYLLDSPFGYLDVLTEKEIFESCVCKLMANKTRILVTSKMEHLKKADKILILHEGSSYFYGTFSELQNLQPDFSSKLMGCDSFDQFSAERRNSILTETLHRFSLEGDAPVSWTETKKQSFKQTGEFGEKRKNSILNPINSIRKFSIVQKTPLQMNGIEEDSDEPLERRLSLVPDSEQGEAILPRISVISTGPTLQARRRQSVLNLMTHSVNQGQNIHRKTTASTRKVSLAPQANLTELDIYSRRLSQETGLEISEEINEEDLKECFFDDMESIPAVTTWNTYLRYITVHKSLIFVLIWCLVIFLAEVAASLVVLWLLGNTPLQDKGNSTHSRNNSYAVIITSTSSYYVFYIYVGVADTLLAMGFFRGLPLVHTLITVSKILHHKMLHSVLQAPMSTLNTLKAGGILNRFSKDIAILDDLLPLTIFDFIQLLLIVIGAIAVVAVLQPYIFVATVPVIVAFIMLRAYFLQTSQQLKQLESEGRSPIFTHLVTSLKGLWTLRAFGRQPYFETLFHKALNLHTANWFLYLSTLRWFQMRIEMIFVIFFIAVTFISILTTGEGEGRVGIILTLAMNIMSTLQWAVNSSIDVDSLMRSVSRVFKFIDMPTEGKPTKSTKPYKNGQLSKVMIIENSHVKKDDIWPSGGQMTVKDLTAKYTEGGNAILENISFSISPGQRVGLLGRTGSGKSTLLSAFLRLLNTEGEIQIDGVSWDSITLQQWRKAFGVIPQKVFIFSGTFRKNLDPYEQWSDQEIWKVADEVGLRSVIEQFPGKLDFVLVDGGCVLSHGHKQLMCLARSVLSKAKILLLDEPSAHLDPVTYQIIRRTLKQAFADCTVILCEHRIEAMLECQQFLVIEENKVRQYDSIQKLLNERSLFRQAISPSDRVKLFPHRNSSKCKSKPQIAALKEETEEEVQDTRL

This test has as its system Cystic fibrosis transmembrane conductance regulator (Homo sapiens), P13569 [F508del]. In words: Corrector activity at CFTR F508del mutant (unknown origin) expressed in human CFBE41o cells assessed as iodide influx at 10 uM after 24 hrs by HS-YFP assay. It is filed as cell-based.
Turning to `O=C(Nc1nc(-c2ccc(Br)cc2)cs1)c1ccccc1O`, the outcome was inactive.
In the case of `CSc1cccc(Nc2nc(-c3ccccn3)cs2)c1`, the outcome was inactive.
Consider `CSc1cccc(Nc2nc(-c3cc(F)cc(Cl)c3)cs2)c1`, for which the outcome was inactive.
`Brc1ccc(-c2csc(N(Cc3ccccc3)Cc3ccccc3)n2)cc1`: the outcome was inactive.
As for `CSc1cccc(Nc2nc(-c3cccc(NC(C)=O)c3)cs2)c1`, the outcome was inactive.
Regarding `CSc1cccc(Nc2nc(-c3cccc(Cl)c3Cl)cs2)c1`, the result was inactive.
In the case of `CSc1cccc(Nc2nc(-c3cccc(I)c3)cs2)c1`, the result was inactive.
Then `CSc1cccc(Nc2nc(-c3cccc(C(F)(F)F)c3)cs2)c1`, with “inactive”; and `CSc1cccc(Nc2nc(-c3cccc(SC)c3)cs2)c1`, with “inactive”.
Turning to `Sc1cccc(Nc2nc(-c3cccc(Cl)c3)cs2)c1`, the result was inactive.
With `CSc1cccc(N(Cc2ccccc2)c2nc(-c3cccc(Cl)c3)cs2)c1`, the result was inactive.
In the case of `CSc1cccc(Nc2nc(-c3ccc4c(c3)NC(=O)CS4)cs2)c1`, the outcome was inactive.
Take `Brc1ccc(-c2csc(N3CCCCC3)n2)cc1`: the result was inactive.
As for `CSc1cccc(Nc2nc(-c3ccc(C)cc3C)cs2)c1`, the outcome was inactive.
Then `COc1ccc(-c2csc(Nc3cccc(SC)c3)n2)c(OC)c1`, with “inactive”; and `CSc1cccc(Nc2nc(-c3ccc(Cl)c(C)c3)cs2)c1`, with “inactive”.
The entry for `CSc1cccc(Nc2nc(-c3ccc4c(c3)ncn4C)cs2)c1` is “inactive”; for `Brc1ccc(-c2csc(NC3CCCCC3)n2)cc1` it is “inactive”; for `CSc1cccc(Nc2nc(-c3cccnc3)cs2)c1` it is “inactive”.
Regarding `CSc1cccc(Nc2nc(-c3ccc([N+](=O)[O-])cc3)cs2)c1`, the outcome was inactive.
For the molecule `O=C(Nc1nc(-c2ccc(Br)cc2)cs1)c1ccncc1`, the outcome was inactive.
In the case of `CCCCCc1ccc(-c2csc(Nc3cccc(SC)c3)n2)cc1`, the outcome was inactive.
For `CSc1cccc(Nc2nc(-c3cccc([N+](=O)[O-])c3)cs2)c1`, the result was inactive.
In the case of `CCSc1cccc(Nc2nc(-c3cccc(Cl)c3)cs2)c1`, the outcome was inactive.
Take `CSc1cccc(Nc2nc(-c3cc(C)n(-c4ccc(Cl)cc4)c3C)cs2)c1`: the result was inactive.
Then `CSc1cccc(Nc2nc(-c3ccccc3C)cs2)c1`, with “inactive”; and `CSc1cccc(Nc2nc(-c3cc(Cl)cc(OC(F)(F)F)c3)cs2)c1`, with “inactive”; and `CC(=O)Oc1ccccc1C(=O)Nc1nc(-c2ccc(Br)cc2)cs1`, with “inactive”.
Then `CSc1cccc(Nc2nc(-c3cccc(Br)c3)cs2)c1`, with “Active”; and `CSc1cccc(Nc2nc(-c3ccc(C(F)(F)F)cc3)cs2)c1`, with “inactive”; and `CSc1cccc(Nc2nc(-c3ccc(Cl)cc3)c(-c3ccc(C)cc3)s2)c1`, with “inactive”.
For the molecule `Brc1ccc(-c2csc(NCc3ccccc3)n2)cc1`, the result was inactive.
`CSc1cccc(Nc2nc(-c3cc(C(C)(C)C)c(O)c(C(C)(C)C)c3)cs2)c1`: the result was inactive.
For `CSc1cccc(Nc2nc(-c3nnn(-c4cc(Cl)cc(Cl)c4)c3C)cs2)c1`, the outcome was inactive.
As for `CSc1cccc(Nc2nc(-c3cc(Cl)ccc3O)cs2)c1`, the result was Active.
The entry for `CCN(CC)c1ccc(-c2csc(Nc3cccc(SC)c3)n2)cc1` is “inactive”; for `COc1ccc(-c2csc(Nc3cccc(SC)c3)n2)cc1Cl` it is “inactive”; for `CSc1cccc(Nc2nc(-c3ccc(Br)c([N+](=O)[O-])c3)cs2)c1` it is “inactive”.
In the case of `CSc1cccc(Nc2nc(-c3ccco3)cs2)c1`, the result was inactive.
The entry for `CSc1cccc(Nc2nc(-c3cnc4ccccc4c3)cs2)c1` is “inactive”.
The entry for `CCCCCc1csc(-c2csc(Nc3cccc(SC)c3)n2)c1` is “inactive”; for `CSc1cccc(Nc2nc(-c3ccc(Br)cc3)c(C)s2)c1` it is “inactive”.
`CSc1cccc(Nc2nc(-c3cc4ccccc4oc3=O)cs2)c1`: the result was inactive.
As to `CSc1cccc(Nc2nc(-c3cccc(C)c3)cs2)c1`, the outcome was inactive.
Take `CSc1cccc(Nc2nc(-c3cnc(CS(=O)(=O)c4ccccn4)s3)cs2)c1`: the outcome was inactive.
For the molecule `COc1cc2c(cc1OC)CN(c1csc(Nc3cccc(SC)c3)n1)CC2`, the result was inactive.
As to `CSc1cccc(Nc2nc(-c3ccc4c(c3)C(C)(C)CCC4(C)C)cs2)c1`, the outcome was inactive.
Turning to `CSc1cccc(Nc2nc(-c3ccc(Cl)cc3Cl)cs2)c1`, the outcome was inactive.
With `CSc1cccc(Nc2nc(-c3cc(Cl)cc(Cl)c3F)cs2)c1`, the outcome was inactive.
Consider `CSc1cccc(Nc2nc(-c3cc(C)cs3)cs2)c1`, for which the outcome was inactive.
On to `CSc1cccc(Nc2nc(-c3ccc(CC(F)(F)F)cc3)cs2)c1`, for which the outcome was inactive.
In the case of `CSc1cccc(Nc2nc(-c3cn(-c4ccccc4)c(C)n3)cs2)c1`, the result was inactive.
As for `CSc1cccc(Nc2nc(-c3cc(OCC(=O)O)c(OCC(=O)O)c(OCC(=O)O)c3)cs2)c1`, the result was inactive.
Take `O=C(Nc1nc(-c2ccc(Br)cc2)cs1)c1ccccc1`: the result was inactive.
In the case of `CSc1cccc(Nc2nc(-c3cccc(OCC(=O)O)c3)cs2)c1`, the outcome was inactive.
Consider `CSc1cccc(Nc2nc(-c3ccc(CCCl)cc3)cs2)c1`, for which the result was inactive.
For the molecule `CCc1ccc(Nc2nc(-c3cccc(Cl)c3)cs2)cc1SC`, the outcome was Active.
Then `CCCOc1ccc(-c2csc(Nc3cccc(SC)c3)n2)cc1`, with “inactive”; and `CSc1cccc(Nc2nc(-c3cccc(O)c3)cs2)c1`, with “inactive”.
On to `CSc1cccc(Nc2nc(-c3cc(Cl)cc(Cl)c3O)cs2)c1`, for which the result was inactive.
As to `CSc1cccc(Nc2nc3ccc(Br)cc3s2)c1`, the result was inactive.
The entry for `CSc1cccc(Nc2nc(-c3ccc(O)c(O)c3)cs2)c1` is “inactive”.
As to `CSc1cccc(Nc2nc(-c3ccccc3)c(C(=O)c3ccccc3)s2)c1`, the result was inactive.
Turning to `CSc1cccc(Nc2nc(-c3c(-c4ccccc4)noc3C)cs2)c1`, the result was inactive.
The entry for `CCCSc1cccc(Nc2nc(-c3cccc(Cl)c3)cs2)c1` is “inactive”; for `CSc1cccc(Nc2nc(-c3ccc(S(C)(=O)=O)cc3)cs2)c1` it is “inactive”; for `CSc1cccc(Nc2nc(-c3ccsc3)cs2)c1` it is “inactive”.
Consider `CSc1cccc(Nc2nc(-c3ccc4c(c3)OCCCO4)cs2)c1`, for which the outcome was inactive.
In the case of `CSc1cccc(Nc2nc(-c3nc(C)cs3)cs2)c1`, the result was inactive.
For `CSc1cccc(Nc2nc(-c3ccc4sccc4c3)cs2)c1`, the result was Active.
